Here are results for two molecules from US20240166630A1, “INDOLE DERIVATIVES AS SEROTONERGIC AGENTS USEFUL FOR THE TREATMENT OF DISORDERS RELATED THERETO” (Mindset Pharma Inc., priority 2021, published 2024).

One data set concerns male C57BL6 mice. The data set is described as follows: Mouse head-twitch response (HTR). The data set is classed as in vivo. To be noted: mice pretreated with M100907 prior to compound. As for the experimental part: Male, C57BL/6J mice (body weight range 20-30 g) were dosed with the appropriate dose of test article, and following a 1-minute pre-treatment time, placed in individual observation chambers. Animals were visually assessed for the incidence head twitches continuously over a 1 hr period. Head twitches were defined as a rapid jerk of the head which was not elicited by an external tactile stimulus (Come and Pickering, Psychopharmacologia, 1967, 11(1): 65-78). Each head twitch was individually counted by a trained observer, and the data expressed as the mean±SEM of 6-10 mice per group. Mice were used in a single experiment only.
Dose response (0.3-3 mg/kg SC) 5-HT2A signs of WDS/BMC measured over 1h. Also locomotor activity and other 5-HT receptor signs measured. For example, the effect on various doses of exemplary compound of Formula I-B, I-B-1, on head-twitch response (HTR) in male C57BL6 mice was studied. The mice were treated with exemplary compound I-B-1 (0.03-10 mg/kg) by SC route in a vehicle of 10% DMSO in Saline (2 drops HCl (0.1M)+1 drop Tween 80 were added), and the total number of head twitches were recorded over a one hour period. Data is expressed as mean±SEM (see, FIG. 1).

Data set [1] is described as follows: Liver microsomes stability with NADPH, human. To be noted: human liver microsomes, with NADPH, 2 μM. As for the experimental part: (§1) The objective of this study was to estimate in vitro metabolic stability of representative compounds of the application in pooled human and male mouse liver microsomes. The concentrations of parent compounds in reaction systems were evaluated by LC-MS/MS for estimating the stability in pooled human and male mouse liver microsomes. The in vitro intrinsic clearances of test compounds were determined as well.
(§2) A master solution in the “Incubation Plate” containing phosphate buffer, ultra-pure H2O, MgCl2 solution and liver microsomes was made according to Table 3. The mixture was pre-warmed at 37° C. water bath for 5 minutes.
(§3) 40 μL of 10 mM NADPH solution was added to each well. The final concentration of NADPH was 1 mM. The negative control samples were prepared by replacing NADPH with 40 μL of ultra-pure H2O. Samples were prepared in duplicate. Negative controls were prepared in singlet.
(§4) The reaction was started with the addition of 4 μL of 200 μM test compounds or control compounds to each master solution to get the final concentration of 2 μM. This study was performed in duplicate.
(§5) Aliquots of 50 μL were taken from the reaction solution at 0, 15, 30, 45 and 60 minutes. The reaction solutions were stopped by the addition of 4 volumes of cold methanol with IS (100 nM alprazolam, 200 nM imipramine, 200 nM labetalol and 2 μM ketoprofen). Samples were centrifuged at 3,220 g for 40 minutes. Aliquot of 90 μL of the supernatant was mixed with 90 μL of ultra-pure H2O and then was used for LC-MS/MS analysis.
(§6) LC/MS analysis was performed for all samples from this study using a Shimadzu liquid chromatograph separation system equipped with degasser DGU-20A5R; solvent delivery unit LC-30AD; system controller SIL-30AC; column oven CTO-30A; CTC Analytics HTC PAL System; Mass spectrometric analysis was performed using an Triple Quad™ 5500 instrument.
(§7) All calculations were carried out using Microsoft Excel. Peak area ratios of test compound to internal standard (listed in the below table) were determined from extracted ion chromatograms.
(§8) All calculations were carried out using Microsoft Excel. Peak areas were determined from extracted ion chromatograms. The slope value, k, was determined by linear regression of the natural logarithm of the remaining percentage of the parent drug vs. incubation time curve.
(§9) The in vitro half-life (in vitro t1/2) was determined from the slope value:
(§10) Conversion of the in vitro t1/2 (min) into the in vitro intrinsic clearance (in vitro CLint, in μL/min/mg proteins) was done using the following equation (mean of duplicate determinations): […]
On the technique in general: Microsomes from liver hold many membrane-bound enzymes, among them those of drug oxidation.

A short description of data set [2]: Liver microsomes stability with NADPH, mouse. How it is done:
as §1, §2, §3, §4, §5, §6, §7, §8, §9, §10

For data set [3] the following is noted: rapid first-pass metabolism by monoamine oxidase; cited from earlier work.
Data set [4] addresses T1, human 5-HT2A (Homo sapiens, UniProt P28223). Particulars: read-out: binding affinity 5-HT2A; literature value; cited from earlier work.
Data set [5] concerns the target T1, human 5-HT2A. The data set is described as follows: Radioligand binding assay on human 5-HT2A receptor ([3H]-ketanserin). How it is done:
i. The assay buffer was prepared following the table below;
iii. Prepared (v/v) DMSO as follows: a. […] The plates were sealed and incubated at 4° C. for 3 hrs;
iv. Preparation of assay plates: a.
vi. The plates were sealed and incubated at 27° C. for 90 min.

Data set [6] addresses T2, human 5-HT2A (h5-HT2A) receptor (Homo sapiens, UniProt P28223).
T2 construct: expressed in transfected cells; kept under G418 and hygromycin B selection
The data set is described as follows: FLIPR assay, human 5-HT2A receptor under agonist mode. In kind it is cell-based. As for the experimental part:
I. Assessment of the Activated Effect of Compounds of Formula I-B Targeting on Human 5-HT2A (h5-HT2A) Receptor Under Agonist Mode:
1. The cells were cultured in cell culture medium (DMEM containing 10% FBS, 1× penicillin-streptomycin 300 μg/ml G418 and 100 μg/ml hygromycin B) at 37° C., 5% (v/v) CO2.
2. One day before the assays, the cells were detached using TrypLE™ Express and count cells using cell counter.
3. 20000 cells/well were seeded in 30 μl/well culture medium to a 384-well cell plate and incubated the cells overnight at 37° C., 5% (v/v) CO2.
4. On the assay day, 2×dye solution was prepared following the manual of the FLIPR® Calcium 6 Assay Kit: i. The dye was diluted with assay buffer (20 mM HEPES in 1×HBSS, PH7.4); ii. probenecid was added to the final concentration of 5 mM; iii. Vortexed vigorously for 1-2 minutes.
5. Medium was removed from cell plate by flicking the cell plate on towel papers.
7. The cell plate was placed on plate shaker, the plate agitated at 600 rpm for 2 minutes. The plate was incubated at 37° C. for 2 hours followed by additional 15-minute incubation at 25° C.
8. 3×compound was prepared in assay buffer: a. Reference compounds were diluted to required concentration with DMSO. The compounds were added to a 384-well compound plate; b. Serial dilutions were performed; c. 10 mM test compounds were added to the compound plate, 3-fold serial dilutions were performed. […] 20 μl/well assay buffer was added to the compound plate; f.
9. The cell plate, compound plate and tips were placed into FLIPR, 10 μl of 3× compound was transferred to the cell plate per well with FLIPR.
i. The normalized fluorescence reading (RFU) was calculated as shown follow, while Fmax and Fmin stand for maximum and minimum of calcium signal during defined time window: RFU=Fmax−Fmin
ii. The percentage activation was calculated by using following equation: […]
iii. EC50 was calculated by fitting % activation against log of compound concentrations with Hill equation using Xlfit.

Data set [7] in a line: Liver microsomes stability with NADPH, rat.

pEC50, pIC50, pKi: −log10 of the molar value.

T1 sequence (P28223 whole entry): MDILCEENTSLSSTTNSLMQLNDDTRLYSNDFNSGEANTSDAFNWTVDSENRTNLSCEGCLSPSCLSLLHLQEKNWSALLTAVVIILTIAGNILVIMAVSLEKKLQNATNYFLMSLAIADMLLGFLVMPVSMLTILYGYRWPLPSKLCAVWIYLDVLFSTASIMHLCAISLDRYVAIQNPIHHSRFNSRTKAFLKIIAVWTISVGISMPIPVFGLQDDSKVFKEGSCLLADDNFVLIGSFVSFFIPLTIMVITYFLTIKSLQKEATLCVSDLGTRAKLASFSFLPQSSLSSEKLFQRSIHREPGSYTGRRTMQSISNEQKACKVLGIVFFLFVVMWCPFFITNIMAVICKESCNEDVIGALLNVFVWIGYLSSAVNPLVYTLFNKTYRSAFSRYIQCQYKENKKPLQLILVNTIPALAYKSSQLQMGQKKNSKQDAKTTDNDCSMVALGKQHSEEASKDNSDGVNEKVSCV
T2 sequence (P28223 whole entry): as above

As for `COc1cccc([C@H](O)C2CCN(CCc3ccc(F)cc3)CC2)c1OC` [Compound M100907], the “effect of pretreatment with 5-HT2AR antagonist on HTR induced by compounds of Formula I-B” value in the data set with male C57BL6 mice is given as “completely blocked”.
By half-life is commonly meant the time in which the quantity being followed falls by half. The low end stands for fast loss, the high end for slow loss. As usually defined, the microsomal CLint is a measure of how fast metabolising enzymes remove a compound, apart from limits set by blood flow. A lower microsomal CLint goes with greater metabolic stability. As a reminder, the pIC50 is −log10 of the IC50, conventionally taken in molar units. One may read the pEC50 as the EC50 on a negative log10 scale, so that one unit is a factor of ten. As to `CN(C)CCc1c[nH]c2ccccc12` [DMT, N,N-dimethyltryptamine, reference compound], in data set [1], the “Remaining Percentage (%) after 60 min Human” value came out at 0.72%. Moreover, in data set [2] (male, mouse, microsomes), the half-life at 2 μM came to 50.5 min and the microsomal CLint at 2 μM came to 27.4 µL/min/mg. Besides, the “Remaining Percentage (%) after 60 min Mouse” value in data set [2] (mouse liver microsomes, with NADPH, 2 μM) was determined as 65.90%. Moreover, the oral activity entry in data set [3] was “not orally active”. For the same molecule, at human 5-HT2A [4], the pKi was 9.63. On human 5-HT2A [5], this molecule had a pIC50 of 5.30 to 6.30. Further, in data set [6], the pEC50 is 6.00 to 7.00. In addition, the “Remaining Percentage (%) after 60 min Rat” value in data set [7] (rat liver microsomes, with NADPH, 2 μM) stood at 17.29%. Moreover, in data set [7] (rat, microsomes), the half-life at 2 μM was determined as 22.7 min and the intrinsic clearance (microsomal CLint) at 2 μM came to 61 µL/min/mg.
